pIC50: −log10 of the molar value.

The experiment concerns the target ATX (human His-tagged) (Homo sapiens (Human), UniProt Q13822). The experiment in a line: Human ATX enzyme inhibition assay (fluorescence quenching, MR121 substrate). The settings on record: MR121 substrate 1 μM, ATX 30 nM final, 30° C. In kind it is biochemical. As to the method: Human ATX Enzyme Inhibition Assay
ATX inhibition was measured by a fluorescence quenching assay using a specifically labeled substrate analogue (MR121 substrate). To obtain this MR121 substrate, BOC and TBS protected 6-amino-hexanoic acid (R)-3-({2-[3-(2-{2-[2-(2-amino-ethoxy)-ethoxy]-ethoxy}-ethoxy)-propionylamino]-ethoxy}-hydroxy-phosphoryloxy)-2-hydroxy-propyl ester (Ferguson et al., Org Lett 2006, 8 (10), 2023) was labeled with MR121 fluorophore (CAS 185308-24-1, 1-(3-carboxypropyl)-11-ethyl-1,2,3,4,8,9,10,11-octahydro-dipyrido[3,2-b:2′,3′-i]phenoxazin-13-ium) on the free amine of the ethanolamine side and then, after deprotection, subsequently with tryptophan on the side of the aminohexanoic acid. Assay working solutions were made as follows: Assay buffer (50 mM Tris-HCl, 140 mM NaCl, 5 mM KCl, 1 mM CaCl2, 1 mM MgCl2, 0.01% Triton-X-100, pH 8.0; ATX solution: ATX (human His-tagged) stock solution (1.08 mg/mL in 20 mM bicine, pH 8.5, 0.15 M NaCl, 10% glycerol, 0.3% CHAPS, 0.02% NaN3), diluted to 1.4-2.5× final concentration in assay buffer; MR121 substrate solution: MR121 substrate stock solution (800 μM MR121 substrate in DMSO), diluted to 2-5× final concentration in assay buffer. Test compounds (10 mM stock in DMSO, 8 μL) were obtained in 384 well sample plates (Corning Costar #3655) and diluted with 8 μL DMSO. Row-wise serial dilutions were made by transferring 8 μL cpd solution to the next row up to row O. The compound and control solutions were mixed five times and 2 μL were transferred to 384 well assay plates (Corning Costar #3702). Then, 15 μL of 41.7 nM ATX solution was added (30 nM final concentration), mixed five times and then incubated for 15 minutes at 30° C. 10 μL of MR121 substrate solution was added (1 μM final concentration), mixed 30 times and then incubated for 15 minutes at 30° C.
In general, pIC50 refers to the negative decadic logarithm of the IC50, by convention in mol/L. Low values mean a large IC50, high ones a small IC50. Take `O=C(O)c1ccc(C(=O)N2C[C@H]3CN(C(=O)OCc4cc(Cl)cc(Cl)c4)C[C@H]3C2)cc1` [Example 5, 4-((3aR,6aS)-5-((3,5-Dichlorobenzyloxy)carbonyl)octahydropyrrolo[3,4-c]pyrrole-2-carbonyl)benzoic acid]: the pIC50 is 5.87. Molecule `CS(=O)(=O)Nc1ccc(C(=O)N2C[C@H]3CN(C(=O)OCc4cc(Cl)cc(Cl)c4)C[C@H]3C2)nc1` [Example 6, (3aR,6aS)-3,5-Dichlorobenzyl 5-(5-(methylsulfonamido)picolinoyl)hexahydropyrrolo[3,4-c]pyrrole-2(1H)-carboxylate] had a pIC50 of 6.21. The molecule `NS(=O)(=O)c1ccc(C(=O)N2C[C@H]3CN(C(=O)OCc4ccc(OC(F)(F)F)cc4)C[C@@H]3C2)c(F)c1` [Example 1.19, (3 aS,6aS)-5-(2-fluoro-4-sulfamoyl-benzoyl)-hexahydro-pyrrolo[3,4-c]pyrrole-2-carboxylic acid 4-trifluoromethoxy-benzyl ester] had a pIC50 of 8.40. For `NS(=O)(=O)c1ccc(C(=O)N2C[C@@H]3CN(C(=O)c4cc5ccccc5c(OCC(F)(F)F)n4)C[C@@H]3C2)cc1` [Example 8.03, 4-{(3aR,6aS)-5-[1-(2,2,2-trifluoro-ethoxy)-isoquinoline-3-carbonyl]-hexahydro-pyrrolo[3,4-c]pyrrole-2-carbonyl}-benzenesulfonamide], the pIC50 was 8.26. `NS(=O)(=O)c1ccc(C(=O)N2C[C@H]3CN(C(=O)CCc4ccc(OC(F)(F)F)cc4F)C[C@@H]3C2)cc1` [Example 8.09, 4-((3 aR,6aR)-5-(3-(2-fluoro-4-(trifluoromethoxy)phenyl)propanoyl)octahydropyrrolo[3,4-c]pyrrole-2-carbonyl)benzenesulfonamide]: the negative-log IC50 (pIC50) is 9.00. In the case of `NS(=O)(=O)c1ccc(C(=O)N2C[C@H]3CN(C(=O)OCc4ccc(OC(F)(F)F)cc4)C[C@@H]3C2)nc1` [Example 1.13, (3aS,6aS)-5-(5-sulfamoyl-pyridine-2-carbonyl)-hexahydro-pyrrolo[3,4-c]pyrrole-2-carboxylic acid 4-trifluoromethoxy-benzyl ester], the pIC50 is 9.00. Molecule `CC(C)Oc1cc(C(=O)N2C[C@H]3CN(C(=O)c4ccc(S(N)(=O)=O)cc4)C[C@H]3C2)cc2ccccc12` [Example 8.02, 4-[(3aR,6aS)-5-(4-isopropoxy-naphthalene-2-carbonyl)-hexahydro-pyrrolo[3,4-c]pyrrole-2-carbonyl]-benzenesulfonamide] showed a negative-log IC50 (pIC50) of 7.85. For the molecule `NS(=O)(=O)c1ccc(C(=O)N2C[C@H]3CN(C(=O)CCc4ccc(OC(F)(F)F)cc4)C[C@H]3C2)cc1` [Example 8.08, 4-{(3aS,6aR)-5-[3-(4-trifluoromethoxy-phenyl)-propionyl]-hexahydro-pyrrolo[3,4-c]pyrrole-2-carbonyl}-benzenesulfonamide], the pIC50 is 8.82. For the molecule `CC(C)(C)C(=O)Nc1cc(C#N)ccc1COC(=O)N1C[C@@H]2CN(C(=O)c3ccc(S(N)(=O)=O)cc3)C[C@H]2C1` [Example 1.24, (3aS,6aS)-5-(4-sulfamoyl-benzoyl)-hexahydro-pyrrolo[3,4-c]pyrrole-2-carboxylic acid 4-cyano-2-(2,2-dimethyl-propionylamino)-benzylester], the pIC50 was 7.92. For `CC(C)Oc1cc(C(=O)N2C[C@H]3CN(C(=O)c4ccc(S(N)(=O)=O)cc4)C[C@H]3C2)nc2ccccc12` [Example 8.05, 4-[(3aR,6aS)-5-(4-Isopropoxy-quinoline-2-carbonyl)-hexahydro-pyrrolo[3,4-c]pyrrole-2-carbonyl]-benzenesulfonamide], the pIC50 was 7.03.

With `NS(=O)(=O)c1ccc(C(=O)N2C[C@H]3CCN(C(=O)/C=C/c4ccc(OC(F)(F)F)cc4)CC[C@H]3C2)cc1` [Example 1.10, 4-{(3aS,8aR)-6-[(E)-3-(4-trifluoromethoxy-phenyl)-acryloyl]-octahydro-pyrrolo[3,4-d]azepine-2-carbonyl}-benzenesulfonamide], the pIC50 was 8.70. As to `O=C(OCc1cc(Cl)cc(Cl)c1)N1C[C@@H]2CN(C(=O)c3ccc(-c4nnn[nH]4)cc3)C[C@@H]2C1` [Example 4, (3aR,6aS)-3,5-Dichlorobenzyl 5-(4-(1H-tetrazol-5-yl)benzoyl)hexahydropyrrolo[3,4-c]pyrrole-2(1H)-carboxylate], the negative-log IC50 (pIC50) was 6.24. This pIC50 lies 2.46 log units lower than the previous one.

As for `O=C(OCc1ccc(OC(F)(F)F)cc1)N1C[C@@H]2CN(C(=O)c3ccc(O)cn3)C[C@H]2C1` [Example 1.17, (3aS,6aS)-5-(5-hydroxy-pyridine-2-carbonyl)-hexahydro-pyrrolo[3,4-c]pyrrole-2-carboxylic acid 4-trifluoromethoxy benzyl ester], the pIC50 is 7.60.

Molecule `Cn1c(C(=O)N2C[C@H]3CN(C(=O)OCc4ccc(OC(F)(F)F)cc4)C[C@@H]3C2)ccc1S(N)(=O)=O` [Example 1.15, (3 aS,6aS)-5-(1-methyl-5-sulfamoyl-1H-pyrrole-2-carbonyl)-hexahydro-pyrrolo[3,4-c]pyrrole-2-carboxylic acid 4-trifluoromethoxy-benzyl ester] gave a negative logarithm of the IC50 (pIC50) of 7.23.

For the molecule `CS(=O)(=O)c1cc(Cl)cc(COC(=O)N2C[C@@H]3CN(C(=O)c4ccc(S(N)(=O)=O)cc4)C[C@H]3C2)c1` [Example 7, (3aS,6aS)-5-(4-Sulfamoyl-benzoyl)-hexahydro-pyrrolo[3,4-c]pyrrole-2-carboxylic acid 3-chloro-5-methanesulfonyl-benzyl ester], the pIC50 was 7.84. Compared with the last molecule, the pIC50 is 0.61 log units higher. `Cn1cc(S(N)(=O)=O)cc1C(=O)N1C[C@H]2CN(C(=O)OCc3ccc(OC(F)(F)F)cc3)C[C@@H]2C1` [Example 1.14, (3 aS,6aS)-5-(1-methyl-4-sulfamoyl-1H-pyrrole-2-carbonyl)-hexahydro-pyrrolo[3,4-c]pyrrole-2-carboxylic acid 4-trifluoromethoxy-benzyl ester]: the negative logarithm of the IC50 (pIC50) was 7.19. With `CC(=O)Nc1ccc(C(=O)N2C[C@H]3CN(C(=O)OCc4cc(Cl)cc(Cl)c4)C[C@H]3C2)cc1` [Example 2, (3aR,6aS)-3,5-Dichlorobenzyl 5-(4-acetamidobenzoyl)hexahydropyrrolo[3,4-c]pyrrole-2(1H)-carboxylate], the pIC50 was 6.47. As to `NS(=O)(=O)c1ccc(C(=O)N2C[C@H]3CN(C(=O)OCc4cc(Cl)cc(Cl)c4)C[C@H]3C2)s1` [Example 1.04, (3aR,6aS)-3,5-dichlorobenzyl 5-(5-sulfamoylthiophene-2-carbonyl)hexahydropyrrolo[3,4-c]pyrrole-2(1H)-carboxylate], the pIC50 was 8.10. Regarding `NS(=O)(=O)c1ccc(C(=O)N2C[C@H]3CN(C(=O)OCc4cc(Cl)cc(Cl)c4)C[C@H]3C2)cc1` [Example 1.05, (3aR,6aS)-3,5-dichlorobenzyl 5-(4-sulfamoylbenzoyl)hexahydropyrrolo[3,4-c]pyrrole-2(1H)-carboxylate], the negative-log IC50 (pIC50) is 8.40. In turn, `CC(C)(C)C(=O)Nc1cc(C#N)ccc1COC(=O)N1C[C@@H]2CN(C(=O)c3ccc(S(N)(=O)=O)nc3)C[C@H]2C1` [Example 1.23, (3aS,6aS)-5-(6-sulfamoyl-pyridine-3-carbonyl)-hexahydro-pyrrolo[3,4-c]pyrrole-2-carboxylic acid 4-cyano-2-(2,2-dimethyl-propionylamino)-benzyl ester] gave a pIC50 of 8.40.

(Values after patent publication US10913745B2, “Octahydro-pyrrolo[3,4-c]-pyrrole derivatives and analogs thereof as autotaxin inhibitors” (Hoffmann-La Roche Inc., priority 2013, dated 2021).)
